Earlier results as cited in patent publication US20190343774A1, “Compositions and Methods for Treating Neurologic Disorders” (PALUPA MEDICAL LTD., priority 2011, published 2019).

System: relapsing multiple sclerosis

Substance	reduction of the annualized relapse rate (two-year trials)	decrease of the possibility of disability accumulation (known) [%]	decrease on ARR (known) [%]
glatiramer acetate	about one third	–	–
Tysabri®: monoclonal antibody; second-line MS drug	–	43	68
